In patent publication US20160159814A1, “GLYCINE TRANSPORTER INHIBITOR” (TAISHO PHARMACEUTICAL CO., LTD., priority 2013, published 2016) one finds IC50 data, which are given here for 28 compounds.

As a reminder, the IC50 is the concentration that gives 50% inhibition.

The target in one assay is T1, human type 1 glycine transporter (GlyT1) (Homo sapiens, UniProt P48067).
T1 construct: T98G cells (glioma cells) expressing human type 1 glycine transporter (GlyT1) were used; endogenous in cells; host or cells: T98G cells (human glioma cells)
T1 sequence (P48067 1-706): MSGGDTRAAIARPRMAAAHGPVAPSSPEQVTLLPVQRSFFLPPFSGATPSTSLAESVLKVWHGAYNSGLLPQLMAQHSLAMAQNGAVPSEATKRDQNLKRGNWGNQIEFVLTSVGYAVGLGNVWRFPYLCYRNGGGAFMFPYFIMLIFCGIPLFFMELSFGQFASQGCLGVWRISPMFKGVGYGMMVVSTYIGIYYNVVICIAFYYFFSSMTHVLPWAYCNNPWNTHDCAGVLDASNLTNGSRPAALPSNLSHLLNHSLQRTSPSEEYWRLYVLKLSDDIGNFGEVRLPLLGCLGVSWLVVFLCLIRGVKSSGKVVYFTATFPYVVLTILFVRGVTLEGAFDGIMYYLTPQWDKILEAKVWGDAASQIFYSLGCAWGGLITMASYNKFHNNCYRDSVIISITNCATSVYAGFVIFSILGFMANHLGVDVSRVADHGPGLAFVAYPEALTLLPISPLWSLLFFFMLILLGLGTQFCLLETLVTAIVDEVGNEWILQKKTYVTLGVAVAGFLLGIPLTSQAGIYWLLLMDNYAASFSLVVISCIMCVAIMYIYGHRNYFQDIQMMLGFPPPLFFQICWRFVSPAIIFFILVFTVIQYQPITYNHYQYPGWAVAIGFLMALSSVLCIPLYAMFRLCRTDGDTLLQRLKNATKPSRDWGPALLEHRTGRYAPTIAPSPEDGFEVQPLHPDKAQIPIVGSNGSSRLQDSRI
Nature of the assay: Glycine uptake inhibition experiment ([3H] glycine uptake in T98G cells expressing GlyT1). It counts as cell-based.
Settings: not given
A digest of the protocol: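 T98G glioma cells expressing human GlyT1 were pretreated 10 min with compound in HEPES buffer pH 7.4 (0.2% BSA), then incubated with compound plus 250 nM final [3H]glycine for 15 min at room temperature. Intracellular radioactivity was counted after NaOH lysis; 10 μM ALX5407 defined non-specific uptake. IC50 came from 10^−9–10^−5 M curves.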
`C[C@H](O)c1cccc2c1C(F)(F)C(=O)N2Cc1ccc(OC(F)F)nc1` [Compound 215, 1-{[6 (difluoromethoxy)pyridin-3-yl]methyl}-3,3-difluoro-4-[(1S)-1-hydroxyethyl]-1,3-dihydro-2H-indol-2-one]: the IC50 came out at 0.24 µM.

`O=C1N(Cc2cncc(Cl)c2)c2cc(F)cc(C(O)C(F)F)c2C1(F)F` (stereo not shown) [Compound 234, 1-[(5-chloropyridin-3-yl)methyl)-4-(2,2-difluoro-1-hydroxyethyl)-3,3,6-trifluoro-1,3-dihydro-2H-indol-2-one] came in with a half-maximal inhibitory concentration (IC50) of 0.62 µM.

`C[C@H](O)c1cccc2c1C(F)(F)C(=O)N2Cc1ncccc1F` [Compound 208, 3,3-difluoro-1-[(3-fluoropyridin-2-yl)methyl]-4-[(1S)-1-hydroxyethyl]-1,3-dihydro-2H-indol-2-one] displayed an IC50 of 0.15 µM.

`N#Cc1cc(Cl)cnc1CN1C(=O)C(F)(F)c2c(C(O)C(F)F)cccc21` (single isomer, unassigned) [Compound 276, 5-chloro-2-{[4-(2,2-difluoro-1-hydroxyethyl)-3,3-difluoro-2-oxo-2,3-dihydro-1H-indol-1-yl]methyl}pyridine-3-carbonitrile] registered an IC50 of 0.2 µM.

`O=C1N(Cc2ccc(Cl)nc2)c2cccc(C(O)C(F)F)c2C1(F)F` (single isomer, unassigned) [Compound 160, 1-[(6-chloropyridin-3-yl)methyl]-4-(2,2-difluoro-1-hydroxyethyl)-3,3-difluoro-1,3-dihydro-2H-indol-2-one] yielded an IC50 of 0.35 µM.

`COc1cccc(CN2C(=O)C(F)(F)c3c(C(O)C(F)F)cccc32)n1` (single isomer, unassigned) [Compound 256, 4-(2,2-difluoro-1-hydroxyethyl)-3,3-difluoro-1-[(6-methoxypyridin-2-yl)methyl)-1,3-dihydro-2H-indol-2-one] had an IC50 of 0.0096 µM.

In turn, `C[C@H](O)c1cccc2c1C(F)(F)C(=O)N2Cc1ccc(-n2nccn2)nc1` [Compound 196, 3,3-difluoro-4-[(1S)-1-hydroxyethyl]-1-{[6-(2H-1,2,3-triazol-2-yl)pyridin-3-yl]methyl)-1,3-dihydro-2H-indol-2-one] gave an IC50 of 4.2 µM.

Still in this assay, the particulars now being: glycine uptake inhibition.
In the case of `O=C1N(Cc2cc(Cl)ccn2)c2cccc(C(O)C(F)F)c2C1(F)F` (single isomer, unassigned) [Compound 146, 1-[(4-chloropyridin-2-yl)methyl]-4-(2,2-difluoro-1-hydroxyethyl)-3,3-difluoro-1,3-dihydro-2H-indol-2-one], the IC50 came to 0.061 µM.

Regarding `O=C1N(Cc2cncc(F)c2)c2cccc(C(O)C(F)F)c2C1(F)F` (single isomer, unassigned) [Compound 144, 4-(2,2-difluoro-1-hydroxyethyl)-3,3-difluoro-1-[(5-fluoropyridin-3-yl)methyl]-1,3-dihydro-2H-indol-2-one], the IC50 is 0.24 µM.

In the case of `O=C1N(Cc2ccnc(Cl)c2)c2cccc(C(O)C(F)F)c2C1(F)F` (single isomer, unassigned) [Compound 36, 1-[(2-chloropyridin-4-yl)methyl]-4-(2,2-difluoro-1-hydroxyethyl)-3,3-difluoro-1,3-dihydro-2H-indol-2-one], inhibition was half-maximal at 0.013 µM (IC50).

Take `N#Cc1cccc(CN2C(=O)C(F)(F)c3c(C(O)C(F)(F)F)cccc32)n1` (single isomer, unassigned) [Compound 19, 6-{[3,3-difluoro-2-oxo-4-(2,2,2-trifluoro-1-hydroxyethyl)-2,3-dihydro-1H-indol-1-yl]methyl}pyridine-2-carbonitrile]: half-maximal inhibition (IC50) required 0.06 µM.

`C[C@H](O)c1cccc2c1C(F)(F)C(=O)N2Cc1nc2ccccc2c(=O)n1C` [Compound 41, 2-({3,3-difluoro-4-[(1S)-1-hydroxyethyl]-2-oxo-2,3-dihydro-1H-indol-1-yl}methyl)-3-methylquinazolin-4(3H)-one] displayed an IC50 of 0.029 µM.

Regarding `O=C1N(Cc2ccnc(Cl)c2)c2cccc([C@@H](O)C(F)(F)F)c2C1(F)F` [Compound 32, 1-[(2-chloropyridin-4-yl)methyl]-3,3-difluoro-4-[(1R)-2,2,2-trifluoro-1-hydroxyethyl]-1,3-dihydro-2H-indol-2-one], it took 0.038 µM to reach half-maximal inhibition (IC50).

As for `COc1ccc(CN2C(=O)C(F)(F)c3c([C@H](C)O)cccc32)nc1` [Compound 106, 3,3-difluoro-4-[(1S)-1-hydroxyethyl]-1-[(5-methoxypydin-2-yl)methyl]-1,3-dihydro-2H-indol-2-one], inhibition was half-maximal at 0.81 µM (IC50).

For `C[C@H](O)c1cccc2c1C(F)(F)C(=O)N2Cc1cc(C#N)ccn1` [Compound 85, 2-({3,3-difluoro-4-[(1S)-1-hydroxyethyl]-2-oxo-2,3-dihydro-1H-indol-1-yl}methyl)pyridine-4-carbonitrile], half-maximal inhibition (IC50) required 0.42 µM.

`O=C1N(Cc2ccccc2)c2cccc(C(O)C(F)F)c2C1(F)F` (single isomer, unassigned) [Compound 157, 1-benzyl-4-(2,2-difluoro-1-hydroxyethyl)-3,3-difluoro-1,3-dihydro-2H-indol-2-one] displayed an IC50 of 0.021 µM.

Compound `CCC(O)c1cccc2c1C(F)(F)C(=O)N2Cc1cccc(Cl)n1` (stereo not shown) [Compound 15, 1-[(6-chloropyridin-2-yl)methyl]-3,3-difluoro-4-(1-hydroxypropyl)-1,3-dihydro-2H-indol-2-one] gave an IC50 of 0.18 µM.

Take `O=C1N(Cc2cncc(Cl)c2)c2ccc(F)c(C(O)C(F)(F)F)c2C1(F)F` (stereo not shown) [Compound 48, 1-[(5-chloropyridin-3-yl)methyl]-3,3,5-trifluoro-4-(2,2,2-trifluoro-1-hydroxyethyl)-1,3-dihydro-2H-indol-2-one]: the IC50 was determined as 0.085 µM.

As to `C[C@H](O)c1cccc2c1C(F)(F)C(=O)N2Cc1nc2ncccc2c(=O)n1C` [Compound 108, 2-({3,3-difluoro-4-[(1S)-1-hydroxyethyl]-2-oxo-2,3-dihydro-1H-indol-1-yl}methyl)-3-methylpyrido[2,3-d]pyrimidin-4(3H)-one], the IC50 came to 0.24 µM.

Take `O=C1N(Cc2cccc(Cl)n2)c2cccc(C(O)C(F)F)c2C1(F)F` (single isomer, unassigned) [Compound 126, 1-[(6-chloropyridin-2-yl)methyl]-4-(2,2-difluoro-1-hydroxyethyl)-3,3-difluoro-1,3-dihydro-2H-indol-2-one]: the IC50 was found to be 0.0079 µM.

Regarding `C[C@H](O)c1cccc2c1C(F)(F)C(=O)N2Cc1ccnc(-n2nccn2)c1` [Compound 45, 3,3-difluoro-4-[(1S)-1-hydroxyethyl]-1-{[2-(2H-1,2,3-triazol-2-yl)pyridin-4-yl]methyl}-1,3-dihydro-2H-indol-2-one], the IC50 turned out to be 0.11 µM.

As to `C[C@H](O)c1cccc2c1C(F)(F)C(=O)N2Cc1nnc2ccccc2n1` [Compound 105, 1-(1,2,4-benzotriazin-3-ylmethyl)-3,3-difluoro-4-[(1S)-1-hydroxyethyl]-1,3-dihydro-2H-indol-2-one], the IC50 worked out at 1 µM.

Compound `C[C@H](O)c1cccc2c1C(F)(F)C(=O)N2Cc1cccc2ccnn12` [Compound 104, 3,3-difluoro-4-[(1S)-1-hydroxyethyl]-1-(pyrazolo[1,5-a]pyridin-7-ylmethyl)-1,3-dihydro-2H-indol-2-one] displayed an IC50 of 0.088 µM.

`C[C@H](O)c1cccc2c1C(F)(F)C(=O)N2Cc1cccc(C(F)(F)F)n1` [Compound 67, 3,3-difluoro-4-[(1S)-1-hydroxyethyl]-1-{[6-(trifluoromethyl)pyridin-2-yl]methyl}-1,3-dihydro-2H-indol-2-one] came in with an IC50 of 0.017 µM.

Take `O=C1N(Cc2cccc(Cl)n2)c2cccc(C(O)C(F)(F)F)c2C1(F)F` (single isomer, unassigned) [Compound 8, 1-[(6-chloropyridin-2-yl)methyl]-3,3-difluoro-4-(2,2,2-trifluoro-1-hydroxyethyl)-1,3-dihydro-2H-indol-2-one]: inhibition was half-maximal at 0.8 µM (IC50).

Regarding `C[C@H](O)c1cccc2c1C(F)(F)C(=O)N2Cc1ccc(C(F)F)cn1` [Compound 131, 1-{[5-(difluoromethyl)pyridin-2-yl]methyl)-3,3-difluoro-4-[(1S)-1-hydroxyethyl]-1,3-dihydro-2H-indol-2-one], 0.93 µM corresponded to half-maximal inhibition (IC50).

Still in this assay, the particulars now being: table section whose head prints (μm).
`COc1cc(CN2C(=O)C(F)(F)c3c([C@H](C)O)cccc32)ncc1F` [Compound 261, 3,3-difluoro-1-[(5-fluoro-4-methoxypyridin-2-yl)methyl)-[(1S)-1-hydroxyethyl]-1,3-dihydro-2H-indol-2-one] returned an IC50 of 0.25 µM.

As to `N#Cc1cccnc1CN1C(=O)C(F)(F)c2c(C(O)C(F)F)cccc21` (single isomer, unassigned) [Compound 259, 2-{[4-(2,2-difluoro-1-hydroxyethyl)-3,3-difluoro-2-oxo-2,3-dihydro-1H-indol-1-yl]methyl}pyridine-3-carbonitrile], the IC50 worked out at 1.9 µM.
